Test results as given in patent US20040091860A1 (priority 1999, published 2004).

Legend:
[1] = tested on: rice POX genes; assay: Inducibility of rice peroxidases to ethephon and MeJA (RNA gel blot analysis); assay type: in vivo, Oryza sativa cv. Nipponbare; conditions: for response of R2151 gene expression to stimuli: R2151 gene (group A1), FIG. 8(d), day 16, compared with control; for expression of R2693, R2329, S11222, prxRPA, R2576, R2184 and C52903 POX genes: leaf blades of 16-day-old seedlings, 1 mM ethephon or 25 μM MeJA solution sprayed onto whole plants, 48 hours, versus leaf blade without stress
Procedure: Gene expression was analyzed by subjecting total RNAs isolated by the ATA method (Nagy et al., Reference 35) to RNA gel blot analysis (Ausubel et al., Reference 36).
cDNA fragments containing 3′ untranslated regions of 21 rice POX genes indicated by boxes in FIG. 1 were amplified by the PCR method. The amplified fragments were used as probes specific to the respective POX genes for the RNA gel blot analysis.
The above-described RNAs were subjected to electrophoresis, followed by transcription to a membrane (HyBond N, Amersham). The specific probes were allowed to hybridize, followed by washing for 5 min (once) and for 10 min (twice) in 2×SSC containing 0.1% SDS at room temperature, and then three times in 1×SSC containing 0.1% SDS for 15 min each at 65° C. Subsequently, the membrane was subjected to autoradiography at −80° C. using a film for autoradiography (XA OMT, Kodak) overnight or more. The recovered film was analyzed by the BAS2000 Bioimaging analyzer (Fuji Photo Film Co., Ltd.) or Phosphor Imager SI (Molecular Dynamics) in accordance with the manufacturer's instruction. The amount of RNA loaded was confirmed by monitoring the level of ribosome RNA (rRNA) stained by methylene blue. The expression amounts of the POXs were compared with each other with reference to the rRNA levels.
16-day-old seedlings were produced under the conditions described in Example 2. With these seedlings, the inducibility of rice peroxidases to ethephon (an ethylene release factor) and MeJA (a wound information transfer substance) was analyzed. For ethephon stimulus, 1 mM ethephon solution containing 0.05% ethanol was used. For MeJA stimulus, 25 μM MeJA solution containing 0.125% Triton X-100 was used. These solutions were sprayed onto whole plants, and maintained for 48 hours.
RNAs were extracted from the leaf blades of stimulated rice plants in a manner as described in Example 2. For each POX, expression specificity was analyzed. As a control, leaf blade without a stress were used.

[2] = tested on: rice POX genes; set-up: species or system Oryza sativa cv. Nipponbare
[3] = tested on: rice blast fungus (M. grisea race(003)); assay type: in vivo, Magnaporthe grisea; conditions: compatible rice treated with probenazole (100 mg/ml) two days before M. grisea race(003), 1×10^5 spores/ml; untreated compatible rice: days 4 and 5
[4] = tested on: POX genes; assay type: in vivo, Oryza sativa cv. Nipponbare; conditions: probenazole-treated rice, before and 2, 3, 4 and 5 days after rice blast fungus treatment; FIG. 24

Compound	response of R2151 gene expression to stimuli [1]	expression of R2693, R2329, S11222, prxRPA, R2576, R2184 and C52903 POX genes [1]	also measured
O=P(O)(O)CCCl [Ethephon, ethephon]	reducible responses	induced expression	
CC/C=C\CC1C(=O)CCC1CC(=O)OC (centres unmarked) [MeJA, methyl jasmonate]	reducible responses	induced expression	
C[n+]1ccc(-c2cc[n+](C)cc2)cc1 [paraquat, 1,1-dimethyl-4,4-dipyridinium dichloride]			expression of R2329, prxRPA, R2576 and C52903 [2]: induced; expression of apoplastic (R2329, prx2576 and R2576) and vacuolar (e.g., R2184 and C52903) POXs [2]: induced the expression
C=CCOC1=NS(=O)(=O)c2ccccc21 [probenazole]			lesion spot formation found on days after rice blast fungus treatment [3]: 2 to 3 days; expression patterns with E2184, R2576, R2693 and R2329 as probes [4]: significantly similar to the transition pattern of formation of lesion spots
